Measured values as given in US12421249B2, “Inhibitors of APOL1 and methods of using same” (Vertex Pharmaceuticals Incorporated, priority 2020, dated 2025).

Target: T1, APOL1 (Homo sapiens, UniProt O14791)
T1 sequence (O14791 1-398 S342G/I384M): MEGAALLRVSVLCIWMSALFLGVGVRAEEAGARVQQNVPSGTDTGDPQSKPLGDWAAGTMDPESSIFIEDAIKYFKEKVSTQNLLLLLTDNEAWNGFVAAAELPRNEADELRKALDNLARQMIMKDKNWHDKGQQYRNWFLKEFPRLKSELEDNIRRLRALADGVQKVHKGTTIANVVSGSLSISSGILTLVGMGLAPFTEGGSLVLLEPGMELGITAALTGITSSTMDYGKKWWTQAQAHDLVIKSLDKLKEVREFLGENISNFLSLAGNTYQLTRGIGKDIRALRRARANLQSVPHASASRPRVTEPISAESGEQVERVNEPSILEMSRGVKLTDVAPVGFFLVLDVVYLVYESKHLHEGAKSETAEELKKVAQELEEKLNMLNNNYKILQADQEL
Assay: Multi-Tox Assay (MultiTox-Fluor Multiplex Cytotoxicity Assay in tet-inducible APOL1 T-REx-HEK293 cells; Table 46 does not say which APOL1 variant G0/G1/G2)
Format: cell-based
Settings: APOL1 variant not given; for IC50: IP50 = IC50 for cell proliferation

C[C@@H](CO)CCn1cc([C@@H]2CC3(C[C@H](C)N2)OCC(F)(F)c2cc(Cl)sc23)nn1 (stereo in doubt) [Compound 338]
IC90: < 50 nM
Multi-Tox Assay Max Activity (%): 99.0%
IC50: < 50 nM

C#C[C@@H]1C[C@]2(C[C@H](C)N1)OCCc1cc(Cl)sc12 [Compound 221, (2S,4S,6S)-2′-chloro-2-ethynyl-6-methyl-4′,5′-dihydrospiro[piperidine-4,7′-thieno[2,3-c]pyran]]
IC50: < 50 nM

C#C[C@@H]1C[C@]2(C[C@H](C)N1)OC[C@@H](O)c1cc(Cl)sc12 [Compound 222, (2′S,4S,6′S,7S)-2-chloro-2′-ethynyl-6′-methyl-spiro[4,5-dihydrothieno[2,3-c]pyran-7,4′-piperidine]-4-ol]
IC50: 50 to 500 nM

C#C[C@@H]1C[C@]2(C[C@H](C)N1)OCC(F)(F)c1cc(Cl)sc12 [Compound 223, (2′S,6′S,7S)-2-chloro-2′-ethynyl-4,4-difluoro-6′-methyl-spiro[5H-thieno[2,3-c]pyran-7,4′-piperidine]]
IC50: > 500 nM

C[C@H]1C[C@@]2(C[C@@H](c3cn(Cc4ccc(CO)cc4)nn3)N1)OC[C@@H](O)c1cc(Cl)sc12 [Compound 224, (2′S,4S,6′S,7S)-2-chloro-2′-[1-[[4-(hydroxymethyl)phenyl]methyl]triazol-4-yl]-6′-methyl-spiro[4,5-dihydrothieno[2,3-c]pyran-7,4′-piperidine]-4-ol]
IC50: 50 to 500 nM

C[C@H]1C[C@@]2(C[C@@H](c3cn(Cc4ccc(CO)cc4)nn3)N1)OCC(F)(F)c1cc(Cl)sc12 [Compound 225, (4-((4-((2S,4S,6S)-2′-chloro-4′,4′-difluoro-2-methyl-4′,5′-dihydrospiro[piperidine-4,7′-thieno[2,3-c]pyran]-6-yl)-1H-1,2,3-triazol-1-yl)methyl)phenyl)methanol]
Multi-Tox Assay Max Activity (%): 97.0%
IC50: 50 to 500 nM

COCC(O)Cn1cc([C@@H]2C[C@]3(C[C@H](C)N2)OC[C@@H](O)c2cc(Cl)sc23)nn1 (stereo partly shown) [Compound 226]
Multi-Tox Assay Max Activity (%): 100.0%
IC50: 50 to 500 nM

C[C@H]1C[C@@]2(C[C@@H](c3cn(CC4CCCCO4)nn3)N1)OC[C@@H](O)c1cc(Cl)sc12 (stereo partly shown) [Compound 227]
Multi-Tox Assay Max Activity (%): 100.0%
IC50: 50 to 500 nM

C[C@H]1C[C@@]2(C[C@@H](c3cn(CCCS(C)(=O)=O)nn3)N1)OC[C@@H](O)c1cc(Cl)sc12 [Compound 228]
Multi-Tox Assay Max Activity (%): 100.0%
IC50: 50 to 500 nM

COCCOCCn1cc([C@@H]2C[C@]3(C[C@H](C)N2)OC[C@@H](O)c2cc(Cl)sc23)nn1 [Compound 229]
Multi-Tox Assay Max Activity (%): 98.0%
IC50: 50 to 500 nM

CC(C)C(=O)NCCn1cc([C@@H]2C[C@]3(C[C@H](C)N2)OC[C@@H](O)c2cc(Cl)sc23)nn1 [Compound 230]
Multi-Tox Assay Max Activity (%): 98.0%
IC50: 50 to 500 nM

C[C@H]1C[C@@]2(C[C@@H](c3cn(Cc4ccccc4S(C)(=O)=O)nn3)N1)OC[C@@H](O)c1cc(Cl)sc12 [Compound 231]
Multi-Tox Assay Max Activity (%): 95.0%
IC50: 50 to 500 nM

C[C@H]1C[C@@]2(C[C@@H](c3cn(Cc4n[nH]c5ccccc45)nn3)N1)OC[C@@H](O)c1cc(Cl)sc12 [Compound 232]
Multi-Tox Assay Max Activity (%): 100.0%
IC50: < 50 nM

C[C@H]1C[C@@]2(C[C@@H](c3cn(CC4(O)CC4)nn3)N1)OC[C@@H](O)c1cc(Cl)sc12 [Compound 233]
Multi-Tox Assay Max Activity (%): 100.0%
IC50: 50 to 500 nM

C[C@H]1C[C@@]2(C[C@@H](c3cn(Cc4ncnc5[nH]ccc45)nn3)N1)OC[C@@H](O)c1cc(Cl)sc12 [Compound 234]
Multi-Tox Assay Max Activity (%): 100.0%
IC50: < 50 nM

Cc1cc(C)nc(CCn2cc([C@@H]3C[C@]4(C[C@H](C)N3)OC[C@@H](O)c3cc(Cl)sc34)nn2)c1 [Compound 235]
Multi-Tox Assay Max Activity (%): 100.0%
IC50: < 50 nM

C[C@H]1C[C@@]2(C[C@@H](c3cn(Cc4ccc(C#N)nc4)nn3)N1)OC[C@@H](O)c1cc(Cl)sc12 [Compound 236]
Multi-Tox Assay Max Activity (%): 100.0%
IC50: < 50 nM

Cc1noc(C)c1Cn1cc([C@@H]2C[C@]3(C[C@H](C)N2)OC[C@@H](O)c2cc(Cl)sc23)nn1 [Compound 237]
Multi-Tox Assay Max Activity (%): 99.0%
IC50: < 50 nM

C[C@H]1C[C@@]2(C[C@@H](c3cn(Cc4ccc(S(C)(=O)=O)cc4)nn3)N1)OC[C@@H](O)c1cc(Cl)sc12 [Compound 238]
IC50: 50 to 500 nM

C[C@H]1C[C@@]2(C[C@@H](c3cn(CC(=O)N4CCCCC4)nn3)N1)OC[C@@H](O)c1cc(Cl)sc12 [Compound 239]
Multi-Tox Assay Max Activity (%): 97.0%
IC50: 50 to 500 nM

C[C@H]1C[C@@]2(C[C@@H](c3cn(CC4(CO)CCOCC4)nn3)N1)OC[C@@H](O)c1cc(Cl)sc12 [Compound 240]
Multi-Tox Assay Max Activity (%): 95.0%
IC50: 50 to 500 nM

C[C@H]1C[C@@]2(C[C@@H](c3cn(CCS(=O)(=O)Nc4ccccc4)nn3)N1)OC[C@@H](O)c1cc(Cl)sc12 [Compound 241]
IC90: 50 to 500 nM
Multi-Tox Assay Max Activity (%): 97.0%
IC50: < 50 nM

C[C@H]1C[C@@]2(C[C@@H](c3cn(CC4(CO)CC4)nn3)N1)OC[C@@H](O)c1cc(Cl)sc12 [Compound 242]
Multi-Tox Assay Max Activity (%): 97.0%
IC50: 50 to 500 nM

C[C@H]1C[C@@]2(C[C@@H](c3cn(Cc4cnc5cnccn45)nn3)N1)OC[C@@H](O)c1cc(Cl)sc12 [Compound 243]
Multi-Tox Assay Max Activity (%): 98.0%
IC50: 50 to 500 nM

C[C@H]1C[C@@]2(C[C@@H](c3cn(CCO)nn3)N1)OC[C@@H](O)c1cc(Cl)sc12 [Compound 244]
Multi-Tox Assay Max Activity (%): 100.0%
IC50: 50 to 500 nM

COc1ccc(Cn2cc([C@@H]3C[C@]4(C[C@H](C)N3)OC[C@@H](O)c3cc(Cl)sc34)nn2)cc1F [Compound 245]
Multi-Tox Assay Max Activity (%): 99.0%
IC50: < 50 nM

C[C@H]1C[C@@]2(C[C@@H](c3cn(C[C@@H](O)CO)nn3)N1)OC[C@@H](O)c1cc(Cl)sc12 [Compound 246]
Multi-Tox Assay Max Activity (%): 97.0%
IC50: 50 to 500 nM

C[C@H]1C[C@@]2(C[C@@H](c3cn(CC(C)(C)O)nn3)N1)OC[C@@H](O)c1cc(Cl)sc12 [Compound 247]
IC50: 50 to 500 nM

C[C@H]1C[C@@]2(C[C@@H](c3cn(Cc4cncs4)nn3)N1)OC[C@@H](O)c1cc(Cl)sc12 [Compound 248]
IC50: < 50 nM

C[C@H]1C[C@@]2(C[C@@H](c3cn(Cc4ccc5nc(O)[nH]c5c4)nn3)N1)OC[C@@H](O)c1cc(Cl)sc12 [Compound 249]
Multi-Tox Assay Max Activity (%): 92.0%
IC50: 50 to 500 nM

C[C@H]1C[C@@]2(C[C@@H](c3cn(CC4CCC4)nn3)N1)OC[C@@H](O)c1cc(Cl)sc12 [Compound 250]
Multi-Tox Assay Max Activity (%): 95.0%
IC50: < 50 nM

Cc1nccn1CCCn1cc([C@@H]2C[C@]3(C[C@H](C)N2)OC[C@@H](O)c2cc(Cl)sc23)nn1 [Compound 251]
Multi-Tox Assay Max Activity (%): 99.0%
IC50: 50 to 500 nM

C[C@H]1C[C@@]2(C[C@@H](c3cn(CCC(C)(C)O)nn3)N1)OC[C@@H](O)c1cc(Cl)sc12 [Compound 252]
Multi-Tox Assay Max Activity (%): 100.0%
IC50: < 50 nM

C[C@H]1C[C@@]2(C[C@@H](c3cn(Cc4ccc(C#N)cc4)nn3)N1)OC[C@@H](O)c1cc(Cl)sc12 [Compound 253]
Multi-Tox Assay Max Activity (%): 100.0%
IC50: < 50 nM

C[C@H]1C[C@@]2(C[C@@H](c3cn(CC4CCC(=O)NC4)nn3)N1)OC[C@@H](O)c1cc(Cl)sc12 (stereo partly shown) [Compound 254]
Multi-Tox Assay Max Activity (%): 92.0%
IC50: > 500 nM

C[C@H]1C[C@@]2(C[C@@H](c3cn(CC#N)nn3)N1)OC[C@@H](O)c1cc(Cl)sc12 [Compound 255]
Multi-Tox Assay Max Activity (%): 100.0%
IC50: 50 to 500 nM

CC(CO)Cn1cc([C@@H]2C[C@]3(C[C@H](C)N2)OC[C@@H](O)c2cc(Cl)sc23)nn1 (stereo partly shown) [Compound 256]
Multi-Tox Assay Max Activity (%): 96.0%
IC50: 50 to 500 nM

CCOCCn1cc([C@@H]2C[C@]3(C[C@H](C)N2)OC[C@@H](O)c2cc(Cl)sc23)nn1 [Compound 257]
IC50: < 50 nM

CNC(=O)C(C)Cn1cc([C@@H]2C[C@]3(C[C@H](C)N2)OC[C@@H](O)c2cc(Cl)sc23)nn1 (stereo partly shown) [Compound 258]
Multi-Tox Assay Max Activity (%): 98.0%
IC50: 50 to 500 nM

C[C@H]1C[C@@]2(C[C@@H](c3cn(Cc4ccc(O)cc4)nn3)N1)OC[C@@H](O)c1cc(Cl)sc12 [Compound 259]
Multi-Tox Assay Max Activity (%): 100.0%
IC50: 50 to 500 nM

Cc1cccc(OCC(O)Cn2cc([C@@H]3C[C@]4(C[C@H](C)N3)OC[C@@H](O)c3cc(Cl)sc34)nn2)c1 (stereo partly shown) [Compound 260]
Multi-Tox Assay Max Activity (%): 99.0%
IC50: < 50 nM

Cc1ccccc1C(O)Cn1cc([C@@H]2C[C@]3(C[C@H](C)N2)OC[C@@H](O)c2cc(Cl)sc23)nn1 (stereo partly shown) [Compound 261]
Multi-Tox Assay Max Activity (%): 100.0%
IC50: 50 to 500 nM

C[C@H]1C[C@@]2(C[C@@H](c3cn(CCc4ccncn4)nn3)N1)OC[C@@H](O)c1cc(Cl)sc12 [Compound 262]
Multi-Tox Assay Max Activity (%): 99.0%
IC50: 50 to 500 nM

COC(=O)Cn1cc([C@@H]2C[C@]3(C[C@H](C)N2)OC[C@@H](O)c2cc(Cl)sc23)nn1 [Compound 263]
IC50: > 500 nM

CC(CO)CCn1cc([C@@H]2C[C@]3(C[C@H](C)N2)OC[C@@H](O)c2cc(Cl)sc23)nn1 (stereo partly shown) [Compound 264]
Multi-Tox Assay Max Activity (%): 100.0%
IC50: < 50 nM

C[C@H]1C[C@@]2(C[C@@H](c3cn(CC4CCS(=O)(=O)C4)nn3)N1)OC[C@@H](O)c1cc(Cl)sc12 (stereo partly shown) [Compound 265]
Multi-Tox Assay Max Activity (%): 99.0%
IC50: 50 to 500 nM
